Read-outs that look alike come from different tables or passages of the source.
Legend:
human NTPDase8 = molecular target: T1, human NTPDase8 (Homo sapiens, UniProt Q5MY95); test: NTPDase CE-based assay, NTPDase8; type: biochemical; conditions: 20 µg/mL (12 µM)
T1 construct: made in house; host or cells: COS-7 cells
T1 sequence (Q5MY95 1-495): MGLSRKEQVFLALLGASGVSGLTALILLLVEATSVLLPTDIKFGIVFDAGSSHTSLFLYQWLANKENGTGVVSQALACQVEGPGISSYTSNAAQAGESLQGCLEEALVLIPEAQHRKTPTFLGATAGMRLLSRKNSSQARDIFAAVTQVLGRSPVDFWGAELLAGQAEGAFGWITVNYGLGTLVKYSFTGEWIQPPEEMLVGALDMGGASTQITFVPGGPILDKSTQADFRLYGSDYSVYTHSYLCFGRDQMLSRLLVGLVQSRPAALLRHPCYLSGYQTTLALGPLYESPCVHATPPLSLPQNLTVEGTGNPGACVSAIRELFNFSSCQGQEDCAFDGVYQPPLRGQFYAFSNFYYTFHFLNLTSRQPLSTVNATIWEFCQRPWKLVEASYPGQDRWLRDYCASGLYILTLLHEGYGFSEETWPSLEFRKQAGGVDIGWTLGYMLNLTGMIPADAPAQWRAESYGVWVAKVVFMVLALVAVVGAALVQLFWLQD
Description: For monitoring the activity of human NTPDases (subtypes 1, 2, 3 and 8) in the presence of test compounds, a CE-based assay system was used, according to a published procedure ([11], [25]). The following concentrations of test compounds were investigated in initial screening studies: 63 IU/mL of compounds 1 and 2, 30 µM of compound 6. For selectivity studies, the following concentration were employed: 50 IU/mL of 1, 12 µM of 6, and 48 µM of 7. The amount of enzyme was selected according to previously performed enzymatic titration, and adjusted to ensure a 10–20% conversion rate. Enzymes were obtained by transfection of COS-7 cells using plasmids encoding human NTPDase1 (GenBank accession number U87967) ([26]), NTPDase2 (NM_203468) ([27]), a kind gift of Dr. A.F. Knowles (San Diego, CA), NTPDase3 (AF034840) ([28]), a kind gift of Dr. T.L. Kirley (Cincinnati, OH) and human NTPDase8 (AY430414) ([29]) and purified as previously described ([30], [31]). The reaction buffer consisted of 10 mM HEPES, 2 mM CaCl2, and 1 mM MgCl2, pH 7.4. In the CE assay, the selected substrate concentration (ATP) was 100 µM for all studied human NTPDases (-1, -2, -3 and -8). […] The released products were separated by CE and quantified by their UV-absorption at 260 nm with ADP and AMP as external standards, as previously described ([11]); positive and negative controls were included.

human NPP1 = molecular target: T2, human NPP1 (Homo sapiens, UniProt P22413); test: NPP1 assay, capillary electrophoresis (CE)-based, ATP as substrate; type: biochemical; conditions: for IC50: human NPP1, 400 µM ATP, CE assay
T2 construct: human recombinant soluble NPP1 (Val191 - Leu591) expressed in murine myeloma NS0 cells; His-tag (N); purchased R&D Systems GmbH (Wiesbaden, Germany); host or cells: murine myeloma NS0 cells
T2 sequence (P22413 191-591): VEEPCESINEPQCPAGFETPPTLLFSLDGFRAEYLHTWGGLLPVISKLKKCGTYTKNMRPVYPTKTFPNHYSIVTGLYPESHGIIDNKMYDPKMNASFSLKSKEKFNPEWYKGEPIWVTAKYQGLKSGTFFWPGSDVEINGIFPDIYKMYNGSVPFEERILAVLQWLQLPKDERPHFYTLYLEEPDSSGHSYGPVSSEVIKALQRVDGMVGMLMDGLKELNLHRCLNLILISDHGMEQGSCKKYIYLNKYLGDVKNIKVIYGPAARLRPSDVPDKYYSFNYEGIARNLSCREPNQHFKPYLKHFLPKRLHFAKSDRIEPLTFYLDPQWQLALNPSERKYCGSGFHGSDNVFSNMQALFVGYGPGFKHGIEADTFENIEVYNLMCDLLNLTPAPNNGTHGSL
Description: Concentration-inhibition curves of the test compounds at human NPP1 were performed with ATP as substrate at a final concentration of 400 μM. Several different dilutions of the test compounds were prepared in assay buffer (10 mM N-cyclohexyl-2-aminoethanesulfonic acid (CHES), 2 mM CaCl2, 1 mM MgCl2, pH 9.00) and incubated with 20 ng of human recombinant soluble NPP1 (Val191 - Leu591) expressed in murine myeloma NS0 cells obtained from R&D Systems GmbH (Wiesbaden, Germany, purity 95%, purified by using an N-terminal His-tag). For initial screening and selectivity analysis, NPP1 prepared as previously described ([20]), diluted in assay buffer, was used. The mixture of enzyme, substrate and test compound or buffer without test compound was incubated for 30 min at 37°C, and the reaction was terminated by heating at 90°C for 5 min. Capillary electrophoresis (CE) analysis was carried out to analyze the formation of the product. Data collection and peak area analysis were performed by the P/ACE MDQ software 32 KARAT obtained from Beckman Coulter (Fullerton, CA, USA). A polyacrylamide-coated capillary was used [30 cm (20 cm effective length) × 50 μm (id) × 360 μm (od) purchased from Chromatographie Service GmbH (Langerwehe, Germany)]. Samples were injected electro-kinetically by applying a voltage of -6 kV for 30 s. Finally, analytes were separated by applying a separation voltage of -20 kV, and detected by UV at 260 nm. The IC50 values were determined by nonlinear curve fitting using the GraphPad Prism Software 7.0. The mechanism of inhibition at human NPP1 was determined employing different concentrations of the investigated compounds 6 (at 0, 0.4, 4.0 µM), and 7 (at 0, 0.4 and 40 µM) versus four different substrate concentrations ranging from 50 to 500 μM of ATP. The assay procedure and operation conditions were the same as described above. The experiment was conducted twice, each in triplicates. A Lineweaver-Burk was calculated using GraphPad Prism 7.0 for predicting the inhibition type of the compound.

`CO[C@H]1O[C@H](COS(=O)(=O)O)[C@@H](O[C@@H]2O[C@@H](C(=O)O)[C@@H](O[C@H]3O[C@H](COS(=O)(=O)O)[C@@H](O[C@@H]4O[C@H](C(=O)O)[C@@H](O[C@H]5O[C@H](COS(=O)(=O)O)[C@@H](O)[C@H](O)[C@H]5NS(=O)(=O)O)[C@H](O)[C@H]4O)[C@H](OS(=O)(=O)O)[C@H]3NS(=O)(=O)O)[C@H](O)[C@H]2OS(=O)(=O)O)[C@H](O)[C@H]1NS(=O)(=O)O` [Compound 6, Fondaparinux] was tested, and the “NTPDase8 inhibition, selectivity study” value (human NTPDase8) was “no effect”, the “inhibition type at human NPP1” value (human NPP1; Lineweaver-Burk plots, ATP 50-500 µM) was “mixed-type” and the IC50 (human NPP1; read-out: IC50 ± SD (µg/ml) (converted)) was 3.31 µM. It also gave an IC50 (human NPP1; values of 1 and 2 estimated (1 IU = 0.002 mg; mean 16.5 kDa for heparin-sodium), read-out: IC50 ± SD) of 2.94 ± 0.61 µM.

From paper PMC10497752, “Heparins are potent inhibitors of ectonucleotide pyrophosphatase/phospho-diesterase-1 (NPP1) – a promising target for the immunotherapy of cancer” (Frontiers in Immunology, 2023)
